Data on two compounds can be found in patent publication US6008234A, “Benzamidine derivatives substituted by cyclic amino acid and cyclic hydroxy acid derivatives and their use as anti-coagulants” (Berlex Laboratories, Inc., priority 1997, dated 1999).

In test [1] the target is T1, Human tissue plasminogen activator (tPA) (Two chains, Sigma) (Homo sapiens, UniProt P00750).
T1 construct: purchased Sigma
Put plainly: In vitro chromogenic assay for tPA (S2288 cleavage). The test is classed as biochemical. The settings on record: 10 nM tPA; pH 7.5; ambient temperature; substrate concentration stated equal to Km. As for the experimental part: (§1) The activities were determined as an initial rate of cleavage of the peptide p-nitroanilide by the enzyme. The cleavage product, p-nitroaniline, absorbs at 405 nm with a molar extinction coefficient of 9920 M^-1 cm^-1.
(§2) 50 mM TrisHCl, 150 mM NaCl, 2.5 mM CaCl2, and 0.1% polyethylene glycol 6000, pH 7.5.
3. Human tissue plasminogen activator (tPA) (Two chains, Sigma) stock solution: 1 mg/mL, stored at -80° C. (working solution (2×): 1361 ng/mL in assay buffer, prepare prior to use).
3. S2288 (tPA assay) stock solution: 10 mM in deionized H2 O, stored at 4° C. (working solution (4×): 1484 μM in assay buffer).
Assays were performed in 96-well microtiter plates in a total volume of 200 μl. […] Concentrations of the standard inhibitor compound in the assay were from 5 μM to 0.021 μM in 1 to 3 dilution. Concentration of the test compounds in the assay typically were from 10 μM to 0.041 μM in 1 to 3 dilution. […]
(§3) The enzyme kinetics were measured at 405 nm at 10 seconds intervals for five minutes in a THERMOmax plate reader at ambient temperature.
(§4) Enzyme rates were calculated as mOD/min based on the first two minutes readings. The IC50 values were determined by fitting the data to the log-logit equation (linear) or the Morrison equation (non-linear) with an EXCEL spread-sheet. […]

Test [2] deals with T2, Human thrombin (Homo sapiens, UniProt P00734).
T2 construct: Human thrombin stock solution; purchased Enzyme Research Lab
Put plainly: In vitro chromogenic assay for thrombin (S2302 cleavage). The format is biochemical. The settings on record: 20 nM thrombin; pH 7.5; ambient temperature; substrate concentration stated equal to Km. The protocol:
as §1, §2
2. Human thrombin stock solution: Stored at -80° C. (working solution (2×): 1200 ng/mL or 40 nM in assay buffer, prepare prior to use).
2. S2302 (Thrombin assay) stock solution: 10 mM in deionized H2 O, stored at 4° C. (working solution (4×): 1200 μM in assay buffer).
Assays were performed in 96-well microtiter plates in a total volume of 200 μl. […] Concentrations of the standard inhibitor compound in the assay were from 5 μM to 0.021 μM in 1 to 3 dilution. Concentration of the test compounds in the assay typically were from 10 μM to 0.041 μM in 1 to 3 dilution. For potent test compounds, the concentrations used in the factor Xa assay were further diluted 100 fold (100 nM to 0.41 nM) or 1000 fold (10 nM to 0.041 nM). […]
as §3, §4

Non-standard residues stand in square brackets, D forms with d. Residues, ends and D or L forms follow the SMILES beside them. *: point of attachment. pNA = O=[N+]([O-])c1ccc(N*)cc1

T1 sequence (P00750 311-562 limits assumed): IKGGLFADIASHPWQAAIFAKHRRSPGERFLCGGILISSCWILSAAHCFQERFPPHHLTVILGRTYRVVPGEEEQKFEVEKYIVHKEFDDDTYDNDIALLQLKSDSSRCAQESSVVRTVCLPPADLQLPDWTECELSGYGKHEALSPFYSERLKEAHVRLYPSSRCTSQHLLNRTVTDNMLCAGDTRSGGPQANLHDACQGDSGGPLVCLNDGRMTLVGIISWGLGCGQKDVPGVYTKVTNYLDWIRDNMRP
T1 sequence (P00750 36-310 limits assumed): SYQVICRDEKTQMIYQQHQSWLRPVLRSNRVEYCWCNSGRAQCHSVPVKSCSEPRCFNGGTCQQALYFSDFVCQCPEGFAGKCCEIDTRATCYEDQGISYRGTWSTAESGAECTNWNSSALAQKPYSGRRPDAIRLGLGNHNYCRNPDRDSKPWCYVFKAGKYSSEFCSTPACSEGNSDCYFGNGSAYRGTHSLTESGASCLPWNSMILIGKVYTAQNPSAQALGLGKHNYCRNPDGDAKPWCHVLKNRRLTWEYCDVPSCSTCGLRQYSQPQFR

On to `CC[C@@H](C)[C@@H](N)C(=O)N1CCC[C@H]1C(=O)N[C@@H](CCCN=C(N)N)C(=O)Nc1ccc([N+](=O)[O-])cc1` [Example S2288] (H-[dI]-Pro-Arg-pNA), for which, in test [1], the Km worked out at 371 µM.
For the compound `N=C(N)NCCC[C@H](NC(=O)[C@H](Cc1ccccc1)NC(=O)[C@H]1CCCN1)C(=O)Nc1ccc([N+](=O)[O-])cc1` [Example S2302] (H-[dP]-Phe-Arg-pNA), the Km in test [2] was 300 µM.

What is called Km is the concentration of substrate that gives half-maximal velocity.
